Experimental data from US9611256B2, “Alkyne-, azide- and triazole-containing flavonoids as modulators for multidrug resistance in cancers” (The Hong Kong Polytechnic University, priority 2012, dated 2017).
Where two headings read alike, the source gives them in different places.

Assays:
in vitro = details: mouse
MRP1 [1] = molecular target: T1, MRP1 (Homo sapiens, UniProt P33527); assay: cell-based
MRP1 [2] = molecular target: T1, MRP1; assay: Reversal of MRP1-mediated DOX resistance in 2008/MRP1 cells (cell proliferation assay); details: (IC50 towards L929 or Raw264.7)/(EC50 for reversing drug resistance)
[3] = system: P-gp, MRP1 and BCRP transporters; assay: Selectivity for ABC transporters, determined from % of reversion (Tables 1 and 2); type: cell-based, human; details: determined from % of reversion in Table 1 (>80% strongly, 79-50% moderately selective)
How it was run: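 Compounds are grouped as acting on one, two or all three of P-gp, MRP1 and BCRP. The basis is percent reversion: 79-50% means moderate selectivity, above 80% strong selectivity.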

BCRP [4] = molecular target: T2, BCRP (Homo sapiens, UniProt Q9UNQ0); assay: Reversal of BCRP-mediated topotecan resistance in MCF7-MX100 cells (cell proliferation assay); details: (IC50 towards L929 or Raw264.7)/(EC50 for reversing drug resistance)
T2 sequence (Q9UNQ0 1-655): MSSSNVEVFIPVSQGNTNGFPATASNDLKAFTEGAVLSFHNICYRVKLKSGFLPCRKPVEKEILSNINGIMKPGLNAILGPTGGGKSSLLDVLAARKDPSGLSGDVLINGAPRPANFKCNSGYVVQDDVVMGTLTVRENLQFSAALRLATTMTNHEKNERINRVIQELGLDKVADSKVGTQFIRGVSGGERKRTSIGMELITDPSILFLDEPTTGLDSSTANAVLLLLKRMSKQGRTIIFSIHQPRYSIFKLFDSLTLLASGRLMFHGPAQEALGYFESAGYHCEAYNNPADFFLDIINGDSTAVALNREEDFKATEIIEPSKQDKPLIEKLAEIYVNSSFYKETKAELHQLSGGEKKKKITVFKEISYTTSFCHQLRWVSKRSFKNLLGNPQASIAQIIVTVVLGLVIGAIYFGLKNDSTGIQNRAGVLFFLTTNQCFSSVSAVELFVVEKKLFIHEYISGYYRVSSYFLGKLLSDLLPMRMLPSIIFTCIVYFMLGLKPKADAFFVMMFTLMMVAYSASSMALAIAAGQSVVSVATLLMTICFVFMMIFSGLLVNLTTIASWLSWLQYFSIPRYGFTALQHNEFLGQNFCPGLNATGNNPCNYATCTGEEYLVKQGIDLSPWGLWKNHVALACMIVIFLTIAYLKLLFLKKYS

P-gp = P-gp (Homo sapiens, UniProt P08183); assay: cell-based
MRP1 [5] = molecular target: T1, MRP1; assay: cell-based; remark: listed apart in the source
MRP1 [6] = molecular target: T1, MRP1; assay: Reversal of MRP1-mediated vincristine resistance in 2008/MRP1 cells (cell proliferation assay); details: (IC50 towards L929 or Raw264.7)/(EC50 for reversing drug resistance)
BCRP [7] = molecular target: T2, BCRP; assay: cell-based

T1 sequence (P33527 whole entry): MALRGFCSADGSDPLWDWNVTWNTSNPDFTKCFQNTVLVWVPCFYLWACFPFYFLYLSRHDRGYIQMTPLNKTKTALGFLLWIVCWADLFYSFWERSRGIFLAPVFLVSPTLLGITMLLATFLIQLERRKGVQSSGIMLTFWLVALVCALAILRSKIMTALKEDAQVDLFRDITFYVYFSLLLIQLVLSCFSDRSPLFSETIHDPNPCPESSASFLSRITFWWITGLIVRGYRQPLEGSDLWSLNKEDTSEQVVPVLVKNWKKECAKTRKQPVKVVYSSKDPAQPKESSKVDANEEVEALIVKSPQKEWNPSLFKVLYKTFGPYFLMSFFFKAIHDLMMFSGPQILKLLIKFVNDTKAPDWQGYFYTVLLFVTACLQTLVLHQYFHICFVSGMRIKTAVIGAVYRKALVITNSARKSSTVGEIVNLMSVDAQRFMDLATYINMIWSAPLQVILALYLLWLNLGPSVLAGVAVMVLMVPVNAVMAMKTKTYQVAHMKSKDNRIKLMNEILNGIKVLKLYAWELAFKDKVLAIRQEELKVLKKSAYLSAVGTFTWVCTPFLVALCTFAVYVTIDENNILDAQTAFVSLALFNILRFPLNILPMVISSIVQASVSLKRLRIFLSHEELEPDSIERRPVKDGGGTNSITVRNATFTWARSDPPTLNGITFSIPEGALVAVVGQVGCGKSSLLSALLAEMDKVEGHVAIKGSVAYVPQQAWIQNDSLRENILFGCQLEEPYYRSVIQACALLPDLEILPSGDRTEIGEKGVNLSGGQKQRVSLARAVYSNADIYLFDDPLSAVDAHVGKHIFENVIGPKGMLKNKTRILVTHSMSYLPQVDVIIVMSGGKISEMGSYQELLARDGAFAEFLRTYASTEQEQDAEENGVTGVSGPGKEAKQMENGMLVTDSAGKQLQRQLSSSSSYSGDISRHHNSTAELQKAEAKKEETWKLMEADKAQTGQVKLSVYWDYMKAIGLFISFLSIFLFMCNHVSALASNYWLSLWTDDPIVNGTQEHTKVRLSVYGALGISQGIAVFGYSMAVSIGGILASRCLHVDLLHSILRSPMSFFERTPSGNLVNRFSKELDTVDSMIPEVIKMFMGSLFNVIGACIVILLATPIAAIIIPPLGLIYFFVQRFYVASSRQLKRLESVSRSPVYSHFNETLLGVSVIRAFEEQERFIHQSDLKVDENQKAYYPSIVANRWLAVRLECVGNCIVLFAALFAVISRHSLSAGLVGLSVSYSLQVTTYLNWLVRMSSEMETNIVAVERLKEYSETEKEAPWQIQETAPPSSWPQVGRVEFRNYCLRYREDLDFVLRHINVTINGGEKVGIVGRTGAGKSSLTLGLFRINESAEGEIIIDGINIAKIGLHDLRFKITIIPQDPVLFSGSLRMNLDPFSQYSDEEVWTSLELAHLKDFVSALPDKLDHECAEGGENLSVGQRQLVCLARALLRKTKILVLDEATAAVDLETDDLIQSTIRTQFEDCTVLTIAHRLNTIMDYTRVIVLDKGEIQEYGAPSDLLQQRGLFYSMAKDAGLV
Chain of P-gp (P08183 whole entry): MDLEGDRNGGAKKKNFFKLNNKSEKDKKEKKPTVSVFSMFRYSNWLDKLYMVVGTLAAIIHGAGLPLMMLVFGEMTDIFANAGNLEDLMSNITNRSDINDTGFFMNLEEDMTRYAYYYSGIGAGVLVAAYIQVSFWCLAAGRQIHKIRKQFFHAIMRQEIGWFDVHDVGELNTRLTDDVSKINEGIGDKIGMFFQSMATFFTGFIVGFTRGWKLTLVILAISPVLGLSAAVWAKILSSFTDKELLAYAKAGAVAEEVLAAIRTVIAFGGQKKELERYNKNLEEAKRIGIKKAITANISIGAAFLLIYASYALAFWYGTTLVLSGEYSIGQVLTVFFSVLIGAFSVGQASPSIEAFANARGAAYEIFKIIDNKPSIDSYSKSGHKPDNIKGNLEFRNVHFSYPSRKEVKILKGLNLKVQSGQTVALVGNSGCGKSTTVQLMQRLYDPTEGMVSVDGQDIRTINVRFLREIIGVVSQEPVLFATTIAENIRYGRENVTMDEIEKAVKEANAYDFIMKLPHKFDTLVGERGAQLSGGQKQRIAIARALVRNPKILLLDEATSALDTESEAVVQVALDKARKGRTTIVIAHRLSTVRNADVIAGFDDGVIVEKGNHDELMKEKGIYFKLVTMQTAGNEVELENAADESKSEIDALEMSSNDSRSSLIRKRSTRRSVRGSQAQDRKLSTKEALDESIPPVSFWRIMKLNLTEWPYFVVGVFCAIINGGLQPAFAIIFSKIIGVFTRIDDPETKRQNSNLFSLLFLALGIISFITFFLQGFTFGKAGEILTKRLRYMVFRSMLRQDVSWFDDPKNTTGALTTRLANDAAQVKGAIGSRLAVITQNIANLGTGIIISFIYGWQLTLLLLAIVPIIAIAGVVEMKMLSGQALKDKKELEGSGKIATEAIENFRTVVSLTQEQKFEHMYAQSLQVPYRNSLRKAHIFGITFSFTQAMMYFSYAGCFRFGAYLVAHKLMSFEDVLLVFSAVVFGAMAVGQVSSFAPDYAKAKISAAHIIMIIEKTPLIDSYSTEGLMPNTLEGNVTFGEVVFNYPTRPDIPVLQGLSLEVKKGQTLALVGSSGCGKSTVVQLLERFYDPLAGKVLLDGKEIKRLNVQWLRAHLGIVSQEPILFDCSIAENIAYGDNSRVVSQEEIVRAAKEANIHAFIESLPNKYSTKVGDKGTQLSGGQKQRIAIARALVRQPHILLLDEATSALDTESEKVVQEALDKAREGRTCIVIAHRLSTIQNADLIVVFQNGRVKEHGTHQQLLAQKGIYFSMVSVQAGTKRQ

SMILES	IC50 at 5 days (in vitro)	EC50 (MRP1 [1])	Selectivity for ABC transporters (P-gp, MRP1, BCRP) [3]	EC50 (MRP1 [5])	EC50 (BCRP [7])	DOX resistance of 2008/MRP1 Therapeutic index (MRP1 [2])	Topotecan resistance of MCF7-MX100 Therapeutic index (BCRP [4])	EC50 (P-gp)	Vincristine resistance of 2008/MRP1 Therapeutic index (MRP1 [6])
Cc1ccc2oc(-c3ccc(OCCCCc4cn(CCOCCOc5ccc(-c6cc(=O)c7ccccc7o6)cc5)nn4)cc3)cc(=O)c2c1 [Ac5Az1, 6-Methyl-2-(4-(4-(1-(2-(2-(4-(4-oxo-4H-chromen-2-yl)phenoxy)ethoxy)ethyl)-1H-1,2,3-triazol-4-yl)butoxy)phenyl)-4H-chromen-4-one]	> 57000 nM	250 nM	–	–	–	–	–	–	–
Cc1ccc2oc(-c3ccc(OCCCCc4cn(CCOCCOc5ccc6c(=O)cc(-c7ccccc7)oc6c5)nn4)cc3)cc(=O)c2c1 [Ac5Az11, 6-Methyl-2-(4-(4-(1-(2-(2-((4-oxo-2-phenyl-4H-chromen-7-yl)oxy)ethoxy)ethyl)-1H-1,2,3-triazol-4-yl)butoxy)phenyl)-4H-chromen-4-one]	> 100000 nM	–	–	135 ± 10 nM	–	–	–	160 ± 21 nM	–
O=c1cc(-c2ccc(OCCOCCn3cc(CCCCOc4ccc5c(=O)cc(-c6ccccc6)oc5c4)nn3)cc2)oc2ccccc12 [Ac12Az1, 7-(4-(1-(2-(2-(4-(4-Oxo-4H-chromen-2-yl)phenoxy)ethoxy)ethyl)-1H-1,2,3-triazol-4-yl)butoxy)-2-phenyl-4H-chromen-4-one]	> 100000 nM	–	MRP1- and BCRP-dual selectivity	84 ± 11 nM	–	–	–	–	>1190.5
O=c1cc(-c2ccccc2)oc2cc(OCCCCc3cn(CCOCCOc4ccc5c(=O)cc(-c6ccccc6)oc5c4)nn3)ccc12 [Ac12Az11, 7-(2-(2-(4-(4-((4-Oxo-2-phenyl-4H-chromen-7-yl)oxy)butyl)-1H-1,2,3-triazol-1-yl)ethoxy)ethoxy)-2-phenyl-4H-chromen-4-one]	> 100000 nM	–	MRP1- and BCRP-dual selectivity	169 nM	30 nM	>877.2	–	–	>591.7
O=c1cc(-c2ccccc2)oc2cc(OCCCCc3cn(CCOCCOCCOc4ccc5c(=O)cc(-c6ccccc6)oc5c4)nn3)ccc12 [Ac12Az12, 7-(2-(2-(2-(4-(4-((4-Oxo-2-phenyl-4H-chromen-7-yl)oxy)butyl)-1H-1,2,3-triazol-1-yl)ethoxy)ethoxy)ethoxy)-2-phenyl-4H-chromen-4-one]	> 100000 nM	–	MRP1- and BCRP-dual selectivity	168 nM	34 nM	>740.7	–	–	>595.2
O=c1cc(-c2ccc(OCCOCCOCCn3cc(CN(Cc4ccccc4)Cc4cn(CCOCCOCCOc5ccc(-c6cc(=O)c7ccccc7o6)cc5)nn4)nn3)cc2)oc2ccccc12 [Ac15Az2, 2,2′-((((((((4,4′-((Benzylazanediyl)bis(methylene))bis(1H-1,2,3-triazole-4,1-diyl))bis(ethane-2,1-diyl))bis(oxy))bis(ethane-2,1-diyl))bis(oxy))bis(ethane-2,1-diyl))bis(oxy))bis(4,1-phenylene))bis(4H-chromen-4-one)]	> 100000 nM	530 ± 120 nM	mono-MRP1 selectivity	550 nM	–	>188.7	–	–	>181.8
Cc1ccc2oc(-c3ccc(OCCOCCOCCn4cc(CN(Cc5ccccc5)Cc5cn(CCOCCOCCOc6ccc(-c7cc(=O)c8cc(C)ccc8o7)cc6)nn5)nn4)cc3)cc(=O)c2c1 [Ac15Az3, 2,2′-((((((((4,4′-((Benzylazanediyl)bis(methylene))bis(1H-1,2,3-triazole-4,1-diyl))bis(ethane-2,1-diyl))bis(oxy))bis(ethane-2,1-diyl))bis(oxy))bis(ethane-2,1-diyl))bis(oxy))bis(4,1-phenylene))bis(6-methyl-4H-chromen-4-one)]	> 100000 nM	–	MRP1- and BCRP-dual selectivity	535 ± 62.6 nM	36 ± 4 nM	>210.5	–	–	>186.9
O=c1cc(-c2ccccc2)oc2cc(OCCN(Cc3ccccc3)Cc3cn(CCOCCOc4ccc(-c5cc(=O)c6cc(F)ccc6o5)cc4)nn3)ccc12 [Ac16Az7, 7-(2-(Benzyl((1-(2-(2-(4-(6-fluoro-4-oxo-4H-chromen-2-yl)phenoxy)ethoxy)ethyl)-1H-1,2,3-triazol-4-yl)methyl)amino)ethoxy)-2-phenyl-4H-chromen-4-one]	> 100000 nM	123 ± 13 nM	–	–	–	–	–	–	–
O=c1cc(-c2ccccc2)oc2cc(OCCN(Cc3ccccc3)Cc3cn(CCOc4ccc5c(=O)cc(-c6ccccc6)oc5c4)nn3)ccc12 [Ac16Az13, 7-(2-(Benzyl((1-(2-((4-oxo-2-phenyl-4H-chromen-7-yl)oxy)ethyl)-1H-1,2,3-triazol-4-yl)methyl)amino)ethoxy)-2-phenyl-4H-chromen-4-one]	> 100000 nM	590 nM	–	–	–	>169.5	–	–	–

Continued, in another order:

IC50 at 5 days (in vitro)	EC50 (MRP1 [1])	Selectivity for ABC transporters (P-gp, MRP1, BCRP) [3]	EC50 (MRP1 [5])	EC50 (BCRP [7])	SMILES	DOX resistance of 2008/MRP1 Therapeutic index (MRP1 [2])	Topotecan resistance of MCF7-MX100 Therapeutic index (BCRP [4])	EC50 (P-gp)	Vincristine resistance of 2008/MRP1 Therapeutic index (MRP1 [6])
60200 ± 16300 nM	128 ± 32.5 nM	–	–	–	O=c1cc(-c2ccc(OCCCc3cn(CCOCCOc4ccc(-c5cc(=O)c6ccccc6o5)cc4)nn3)cc2)oc2ccccc12 [Ac1Az1, 2-(4-(3-(1-(2-(2-(4-(4-Oxo-4H-chromen-2-yl)phenoxy)ethoxy)ethyl)-1H-1,2,3-triazol-4-yl)propoxy)phenyl)-4H-chromen-4-one]	–	–	–	–
> 100000 nM	145 ± 25 nM	–	–	–	O=c1cc(-c2ccc(OCCOCCn3cc(CCCOc4ccc5c(=O)cc(-c6ccccc6)oc5c4)nn3)cc2)oc2ccccc12 [Ac2Az1, 7-(3-(1-(2-(2-(4-(4-Oxo-4H-chromen-2-yl)phenoxy)ethoxy)ethyl)-1H-1,2,3-triazol-4-yl)propoxy)-2-phenyl-4H-chromen-4-one]	–	–	–	–
> 100000 nM	110 ± 15 nM	MRP1- and BCRP-dual selectivity	–	–	COCOc1cc(O)c2c(=O)cc(-c3ccc(OCCCc4cn(CCOCCOc5ccc(-c6cc(=O)c7ccccc7o6)cc5)nn4)cc3)oc2c1 [Ac4(5OH)Az1, 5-Hydroxy-7-(methoxymethoxy)-2-(4-(3-(1-(2-(2-(4-(4-oxo-4H-chromen-2-yl)phenoxy)ethoxy)ethyl)-1H-1,2,3-triazol-4-yl)propoxy)phenyl)-4H-chromen-4-one]	>909.1	>1960.8	–	–
> 100000 nM	–	–	–	–	Cc1ccc2oc(-c3ccc(OCCCCc4cn(CCOCCOc5ccc(-c6cc(=O)c7cc(F)ccc7o6)cc5)nn4)cc3)cc(=O)c2c1 [Ac5Az7, 6-Fluoro-2-(4-(2-(2-(4-(4-(4-(6-methyl-4-oxo-4H-chromen-2-yl)phenoxy)butyl)-1H-1,2,3-triazol-1-yl)ethoxy)ethoxy)phenyl)-4H-chromen-4-one]	–	–	157 nM	–
> 100000 nM	–	MRP1- and BCRP-dual selectivity	93.3 ± 20.5 nM	–	O=c1cc(-c2ccccc2)oc2cc(OCCCCc3cn(CCOCCOc4ccc(-c5cc(=O)c6cc(F)ccc6o5)cc4)nn3)ccc12 [Ac12Az7, 6-Fluoro-2-(4-(2-(2-(4-(4-((4-oxo-2-phenyl-4H-chromen-7-yl)oxy)butyl)-1H-1,2,3-triazol-1-yl)ethoxy)ethoxy)phenyl)-4H-chromen-4-one]	>580.4	–	–	>1071.8
